According to US9301999B2 (priority 2009, dated 2016):
“And” between values parts separate entries of the source, which are not always exact repeats. Equal values may be shown once. Where no end group is shown, it is not given here.

Assays:
MC/9 mast cells = assay type: cell-based, murine; parameters: MCD10: concentration of peptide necessary to induce degranulation of 10% of mast cells: unit not given here; conditions: for EC50: read-out: MCD50: concentration of peptide necessary to induce degranulation of 50% of mast cells
anti-rPA IgG [1] = test system: anti-rPA IgG; parameters: species or system female C3H mice; conditions: mouse, in vivo
anti-WNV IgG = assay type: in vivo, Female BALB/c mice; conditions: nasal, days 0, 7 and 21, WNV antigen 1 μg + 0.25 or 1.25 nmoles peptide; for Anti-WNV IgG titers in sera on day 28, versus antigen alone: ANOVA p<0.05; for anti-WNV IgG titers, difference versus mice that received MP7: serum day 28
anti-rPA IgG [2] = test system: anti-rPA IgG; parameters: species or system female C3H/HeN mice; conditions: mouse, in vivo
anti-PA IgG = test system: anti-PA IgG; parameters: species or system Female C3H/HeN mice; conditions: mouse, in vivo
anti-rPA serum IgG = test system: anti-rPA serum IgG; parameters: species or system C3H/HeN female mice; conditions: mouse, in vivo

Substance | % Mast Cell Degranulation (MC/9 mast cells) | MCD10: concentration of peptide necessary to induce degranulation of 10% of mast cells (MC/9 mast cells) | other results
I N L K A L A A L A K F I L [MP-12F-Ac-NH2] | 87.65% and 83.36% and 67.41% | – | –
INLKALAALAKALLSGGRGGINLKALAALAKALL-NH2 [MP7-2XA] | – | – | % MC/9 Degranulation (MC/9 mast cells): 50.20% and 78.40%
I N L K A F A A L A K K I L (INLKAFAALAKKIL) [MP-6F] | – | 58.40 | –
I N L K A L A A L A K I I L [MP-12I-Ac-NH2] | 87.97% and 67.63% and 46.09% | – | –
I N L K A L A A L A K K L L (INLKALAALAKKLL) [MP-13L] | – | 22.46 | –
WQWRWWWWWWRWWW-NH2 [Duke Mast I] | – | – | Tukey's Multiple Comparison Test versus CT, Significant? P < 0.05? (anti-rPA IgG [1]): No; Tukey's Multiple Comparison Test versus rPA, Significant? P < 0.05? (anti-rPA IgG [1]): Yes; adjuvant activity: serum anti-rPA IgG titers compared to rPA alone (anti-rPA IgG [1]): statistically significant adjuvant activity; % MC/9 Degranulation (MC/9 mast cells): 30.50%
I N L K A L A A L A K F I L [MP-12F-NH2] | 95.24% and 87.57% and 70.01% | – | –
INLKALAALAKCIL [MP-12C, I N L K A L A A L A K C I L] | – | 5.33 | EC50 (MC/9 mast cells): 23.8 µM
I N L K A L A A L A K L I L [MP-12L-OH] | 21.36% | – | –
INLKALAALAKIIL [MP-12I, I N L K A L A A L A K I I L] | – | 2.32 | Anti-WNV IgG titers in sera on day 28, versus antigen alone (anti-WNV IgG): significantly greater; anti-WNV IgG titers, difference versus mice that received MP7 (anti-WNV IgG): no significant difference; EC50 (MC/9 mast cells): 12 µM
I N L K A L A A L A K W I L [MP-12W-OH] | 23.83% | – | –
I N L K A L A A L A K W I L [MP-12W-Ac] | 38.76% | – | –
I N L K A L A A L A K A L L [MP7-OH] | 2.87% | – | serum anti-rPA IgG titers, difference between the -OH and -NH2 forms (anti-rPA IgG [2]): no significant difference
I N L K A L A A L A K R I L (INLKALAALAKRIL) [MP-12R] | – | 23.29 | –
INLKALAALAKMIL [MP-12M, I N L K A L A A L A K M I L] | – | 2.96 | EC50 (MC/9 mast cells): 11.3 µM
I N L K A L A A L A K N I L (INLKALAALAKNIL) [MP-12N] | – | 31.86 | –
INLKALAALAKFIL [MP-12F, I N L K A L A A L A K F I L] | – | 4.39 | Anti-WNV IgG titers in sera on day 28, versus antigen alone (anti-WNV IgG): significantly greater; anti-WNV IgG titers, difference versus mice that received MP7 (anti-WNV IgG): no significant difference; EC50 (MC/9 mast cells): 9.22 µM
I N L K A L A A L A K S I L (INLKALAALAKSIL) [MP-12S] | – | 22.50 | –
I N L K A L A A L A K A L L [MP7-Ac] | 0.31% | – | –
INLKALAALAKKIL [Mastoparan-OH] | – | – | serum anti-rPA IgG titer versus mice immunized with rPA alone (anti-rPA IgG [2]): not significantly different; adjuvant activity as determined by serum anti-PA IgG endpoint titers (anti-PA IgG): provided adjuvant activity
I N L K A L A A L A K H I L (INLKALAALAKHIL) [MP-12H] | – | 23.86 | –
I N L K A L A A L A K Q I L (INLKALAALAKQIL) [MP-12Q] | – | 18.73 | –
I N L K A L A A L A K E I L (INLKALAALAKEIL) [MP-12E] | – | 40.32 | –
I N L K A L A A L A K I I L [MP-12I-NH2] | 81.66% and 70.13% and 49.9% | – | –
I N L K A L A A L A K G I L (INLKALAALAKGIL) [MP-12G] | – | 68.76 | –
INLKALAALAKALLINLKALAALAKALL-NH2 [MP7-2X] | – | – | % MC/9 Degranulation (MC/9 mast cells): 33.60% and 47.80%

Substance | % Mast Cell Degranulation (MC/9 mast cells) | MCD10: concentration of peptide necessary to induce degranulation of 10% of mast cells (MC/9 mast cells) | other results
I N L K A L A A L A K K F L (INLKALAALAKKFL) [MP-13F] | – | 24.37 | –
I N L K A L A A L A K W I L [MP-12W-NH2] | 79.87% and 85.74% and 80.05% | – | –
WQWRWWWWWWRRWW-NH2 [Duke Mast C] | – | – | Tukey's Multiple Comparison Test versus CT, Significant? P < 0.05? (anti-rPA IgG [1]): No; Tukey's Multiple Comparison Test versus Duke Mast F NH2, Significant? P < 0.05? (anti-rPA IgG [1]): No; Tukey's Multiple Comparison Test versus Duke Mast I NH2, Significant? P < 0.05? (anti-rPA IgG [1]): No; Tukey's Multiple Comparison Test versus rPA, Significant? P < 0.05? (anti-rPA IgG [1]): Yes; adjuvant activity: serum anti-rPA IgG titers compared to rPA alone (anti-rPA IgG [1]): statistically significant adjuvant activity; % MC/9 Degranulation (MC/9 mast cells): 47.90%
INLKALAALAKVIL [MP-12V, I N L K A L A A L A K V I L] | – | 14.87 | EC50 (MC/9 mast cells): 41.2 µM
I N L K A L A A L A K I I L [MP-12I-OH] | 0% | – | –
INLKALAALAKWIL [MP-12W, I N L K A L A A L A K W I L] | – | 1.47 | Anti-WNV IgG titers in sera on day 28, versus antigen alone (anti-WNV IgG): significantly greater; anti-WNV IgG titers, difference versus mice that received MP7 (anti-WNV IgG): no significant difference; EC50 (MC/9 mast cells): 4.71 µM
WRWRWWWWWWRRWW-NH2 [Duke Mast F] | – | – | Tukey's Multiple Comparison Test versus CT, Significant? P < 0.05? (anti-rPA IgG [1]): No; Tukey's Multiple Comparison Test versus Duke Mast I NH2, Significant? P < 0.05? (anti-rPA IgG [1]): No; Tukey's Multiple Comparison Test versus rPA, Significant? P < 0.05? (anti-rPA IgG [1]): Yes; adjuvant activity: serum anti-rPA IgG titers compared to rPA alone (anti-rPA IgG [1]): statistically significant adjuvant activity; % MC/9 Degranulation (MC/9 mast cells): 27.80% and 40.07%
I N L K A L A A L A K L I L [MP-12L-NH2] | 83.36% and 67.37% and 51.29% | – | –
KLKLLLLLKLK-OH | – | – | adjuvant activity as determined by serum anti-PA IgG endpoint titers (anti-PA IgG): did not provide adjuvant activity
I N L K A L A A L A K I I L [MP-12I-Ac] | 0% | – | –
I N L K A L A A L A K L I L [MP-12L-Ac-NH2] | 80.35% and 76.49% and 58.57% | – | –
INLKALAALAKAIL [MP-12A, I N L K A L A A L A K A I L] | – | 8.88 | EC50 (MC/9 mast cells): 25.3 µM
I N L K A L A A L A K L I L [MP-12L-Ac] | 1.07% | – | –
cholera toxin [CT, reference compound] | – | – | serum anti-PA IgG geometric means titers (GMT), adjuvant activity (anti-rPA serum IgG): did not significantly augment; Tukey's Multiple Comparison Test versus rPA, Significant? P < 0.05? (anti-rPA IgG [1]): Yes
KLKLLLLLKLK-NH2 | – | – | adjuvant activity as determined by serum anti-PA IgG endpoint titers (anti-PA IgG): did not provide adjuvant activity
I N L K A L A A L A K K W L (INLKALAALAKKWL) [MP-13W] | – | 22.76 | –
I N L K A L A A L A K F I L [MP-12F-OH] | 38.07% | – | –
I N L K A L A A L A K K M L (INLKALAALAKKML) [MP-13M] | – | 64.54 | –
I N L K A L A A L A K K C L (INLKALAALAKKCL) [MP-13C] | – | 17.27 | –
I N L K A L A A L A K F I L [MP-12F-Ac] | 2.75% | – | –
INLKALAALAKALLGGGINLKALAALAKALL-NH2 [MP7-2XB] | – | – | % MC/9 Degranulation (MC/9 mast cells): 40.49% and 56.90%
I N L K A I A A L A K K I L (INLKAIAALAKKIL) [MP-6I] | – | 61.14 | –
I N L K A W A A L A K K I L (INLKAWAALAKKIL) [MP-6W] | – | 24.99 | –
INLKALAALAKLIL [MP-12L, I N L K A L A A L A K L I L] | – | 2.30 | Anti-WNV IgG titers in sera on day 28, versus antigen alone (anti-WNV IgG): significantly greater; anti-WNV IgG titers, difference versus mice that received MP7 (anti-WNV IgG): no significant difference; EC50 (MC/9 mast cells): 5.19 µM
INLKALAALAKYIL [MP-12Y, I N L K A L A A L A K Y I L] | – | 4.09 | EC50 (MC/9 mast cells): 11.1 µM
I N L K A L A A L A K A L L [MP7-Ac-NH2] | 54.46% and 47.52% and 29.89% | – | –
